Laboratory results reported in ChEMBL document CHEMBL1667742, “Angiotensin II receptor type 1 (AT1) selective nonpeptidic antagonists--a perspective” (Bioorg Med Chem, 2010).
Numbering of substitutions follows the chain as printed. Values belong to the compound of their own block, whether it stands above or below them.

Tests used:
[1] = target: T1, Type-1 angiotensin II receptor (Oryctolagus cuniculus, UniProt P34976); test: Antagonist activity at angiotensin AT1 receptor in rabbit aorta assessed as reduction of angiotensin 2-induced contractile response; format: functional, tissue-based; settings: read-out: pA2 (converted)
T1 sequence (P34976 whole entry): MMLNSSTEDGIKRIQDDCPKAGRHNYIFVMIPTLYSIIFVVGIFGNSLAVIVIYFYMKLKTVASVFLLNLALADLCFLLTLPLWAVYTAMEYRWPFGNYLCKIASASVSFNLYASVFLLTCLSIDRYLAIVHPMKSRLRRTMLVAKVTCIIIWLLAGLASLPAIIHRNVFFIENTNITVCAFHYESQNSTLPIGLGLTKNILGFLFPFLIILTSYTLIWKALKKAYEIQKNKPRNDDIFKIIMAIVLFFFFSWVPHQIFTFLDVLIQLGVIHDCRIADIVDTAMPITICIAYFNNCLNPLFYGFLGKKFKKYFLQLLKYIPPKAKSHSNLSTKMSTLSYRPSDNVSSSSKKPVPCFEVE

[2] = Selectivity ratio of IC50 for angiotensin AT1 receptor to IC50 for angiotensin AT2 receptor
[3] = target: T1, Type-1 angiotensin II receptor; test: Antagonist activity at angiotensin AT1 receptor in rabbit aortic strip assessed as inhibition of angiotensin 2-induced contractile response; format: functional
[4] = target: T2, Type-1 angiotensin II receptor (Homo sapiens, UniProt P30556); test: (§1) Antagonist activity at angiotensin AT1 receptor; format: functional; settings: read-out: pA2 (converted)
T2 sequence (P30556 whole entry): T1 sequence (P34976 whole entry) with M2I, A49V, V254I, V270I, H272R, K311R, S349T, V353A

[5] = target: T2, Type-1 angiotensin II receptor; test: Binding affinity to angiotensin AT1 receptor
[6] = target: T1, Type-1 angiotensin II receptor; test: (§2) Antagonist activity at angiotensin AT1 receptor in rabbit aorta; format: functional, tissue-based; settings: read-out: pA2 (converted)
[7] = Displacement of radiolabeled angiotensin2 from angiotensin AT1 receptor in rat adrenal cortex membranes; format: cell membranes, Membrane
Rattus norvegicus [8] = test: Antihypertensive activity in iv dosed renal hypertensive rat model; format: functional
Rattus norvegicus [9] = test: Antihypertensive activity in po dosed renal hypertensive rat model; format: functional; settings: read-out: ID50 (the source's name)
[10] = Binding affinity to angiotensin AT1 receptor in rat adrenal cortical membranes; format: cell membranes
[11] = Antagonist activity at angiotensin AT1 receptor in rat aorta; format: functional, tissue-based
Rattus norvegicus [12] = test: Inhibition of angiotensin 2-induced response in iv dosed normotensive rat; format: functional
[13] = Binding affinity to angiotensin AT1 receptor in rat liver membranes; format: cell membranes, Membrane
[14] = target: T3, Type-1 angiotensin II receptor (Homo sapiens) (UniProt P30556); test: as §1; format: functional
T3 sequence (whole entry): T1 sequence (P34976 whole entry) with M2I, A49V, V254I, V270I, H272R, K311R, S349T, V353A

[15] = target: T3, Type-1 angiotensin II receptor (Homo sapiens); test: Ratio of compound Ki to losartan Ki for angiotensin AT1 receptor
[16] = target: T4, Type-2 angiotensin II receptor (Homo sapiens, UniProt P50052); test: Binding affinity to angiotensin AT2 receptor
T4 sequence (P50052 whole entry): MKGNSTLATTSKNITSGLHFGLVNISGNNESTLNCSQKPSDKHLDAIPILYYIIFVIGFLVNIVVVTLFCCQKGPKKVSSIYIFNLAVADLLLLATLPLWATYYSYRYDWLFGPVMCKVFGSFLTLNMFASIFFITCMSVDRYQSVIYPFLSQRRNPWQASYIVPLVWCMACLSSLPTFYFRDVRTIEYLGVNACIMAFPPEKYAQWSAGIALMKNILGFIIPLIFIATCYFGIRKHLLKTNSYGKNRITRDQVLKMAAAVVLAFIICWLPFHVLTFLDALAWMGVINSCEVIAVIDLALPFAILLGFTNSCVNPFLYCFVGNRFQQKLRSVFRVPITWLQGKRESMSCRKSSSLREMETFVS

[17] = target: T5, Type-1 angiotensin II receptor (Bos taurus) (UniProt P25104); test: Binding affinity to angiotensin AT1 receptor in bovine adrenal cortex membranes; format: cell membranes; settings: Membrane
T5 sequence (whole entry): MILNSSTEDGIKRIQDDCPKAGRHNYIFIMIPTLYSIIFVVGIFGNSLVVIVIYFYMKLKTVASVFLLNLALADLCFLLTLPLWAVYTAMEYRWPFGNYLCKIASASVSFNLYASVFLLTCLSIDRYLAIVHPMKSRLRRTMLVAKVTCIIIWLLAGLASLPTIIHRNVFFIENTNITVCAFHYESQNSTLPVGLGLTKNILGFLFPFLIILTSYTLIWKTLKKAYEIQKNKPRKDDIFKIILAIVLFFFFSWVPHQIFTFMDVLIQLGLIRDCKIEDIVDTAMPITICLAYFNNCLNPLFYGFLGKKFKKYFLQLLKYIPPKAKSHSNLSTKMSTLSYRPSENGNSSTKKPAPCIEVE

[18] = Antagonist activity at angiotensin AT1 receptor in rat adrenal cortical membranes; format: functional, cell membranes
[19] = target: T1, Type-1 angiotensin II receptor; test: Binding affinity to angiotensin AT1 receptor in rabbit aortic rings
Rattus norvegicus [20] = test: Antihypertensive activity in po dosed conscious rat; format: functional; settings: read-out: ID50 (the source's name)
[21] = target: T6, Type-1 angiotensin II receptor (Oryctolagus cuniculus) (UniProt P34976); test: as §2; format: functional, tissue-based
T6 sequence (whole entry): T1 sequence (P34976 whole entry)

SMILES: CCCCCc1nc(SCc2ccc(-c3ccccc3C(=O)O)cc2)nn1Cc1ccc(-c2ccccc2C(=O)O)cc1
Kb [1]: 3.98 nM

SMILES: CCc1nc2ccc(N(Cc3ccccc3)C(=O)c3cccs3)cc2c(=O)n1Cc1ccc(-c2ccccc2-c2nn[nH]n2)cc1
Ratio IC50 [2]: 3000

SMILES: CCc1nc2ccc(NC(=O)N(C)C(C)C)cc2c(=O)n1Cc1ccc(-c2ccccc2S(=O)(=O)NC(=O)OCCC2CC2)cc1F
Ratio IC50 [2]: 2

SMILES: CCc1nc2c(CC)cn(Cc3ccc(-c4ccccc4-c4nn[nH]n4)cc3)n2n1
Kb [6]: 1.51 nM

SMILES: CCCCc1c(Cc2ccc(-c3ccccc3-c3nn[nH]n3)cc2)[n+]([O-])c2ccccc2[n+]1[O-]
Ki [10]: 2.6 nM
Kb [11]: 2.1 nM

SMILES: CCCc1cc(O)c(C)c(=O)n1Cc1ccc(-c2ccccc2-c2nn[nH]n2)cc1
ED50 (Rattus norvegicus [12]; Rattus norvegicus, iv, read-out: ID50 (the source's name)): 0.02 mg/kg

SMILES: COc1c(OCc2ccc(-c3ccccc3-c3nn[nH]n3)cc2)cc(C)nc1C
Kb [1]: 1.51 nM
pKi [13]: 8.7

SMILES: CCCCc1ncc(/C=C(\Cc2cccs2)C(=O)O)n1Cc1ccc(C(=O)O)cc1 [EPROSARTAN]
ID60 (Rattus norvegicus [12]): 0.08 mg/kg

SMILES: CCCCc1cn([C@H]2[C@H](C)CCC[C@@H]2C)c(=O)n1Cc1ccc(-c2ccccc2-c2nnn[nH]2)nc1 [SC-55634]
Kb [4]: 0.501 nM
IC50 [5]: 4.9 nM

SMILES: C[C@@H]1CN(Cc2ccc(-c3ccccc3-c3nn[nH]n3)cc2)C[C@H](C)O1
Kb [4]: 126 nM

SMILES: CCCc1cc(=O)n(CC(=O)N(C)C)c(=O)n1Cc1ccc(-c2ccccc2-c2nn[nH]n2)cc1
Activity [17]: 9.3 nM
IC50 [18]: 0.65 nM

SMILES: CCc1nc2c(C)cc(C)nc2n1Cc1ccc2c(c1)CCN2C(c1ccccc1)c1nnn[nH]1 (stereo unspecified)
IC50 [19]: 1 nM

SMILES: Cc1ccnc2c1nc(C1CC1)n2Cc1ccc(-c2ccccc2C(=O)O)cc1
Kb [6]: 2 nM
IC50 [10]: 52 nM

SMILES: CCOc1nc2cccc(C(=O)O)c2n1Cc1ccc(-c2ccccc2-c2nsc(O)n2)cc1
Activity [17]: 2.5 nM

SMILES: CCOc1nc2cccc(C(=O)O)c2n1Cc1ccc(-c2ccccc2-c2noc(=O)[nH]2)cc1 [AZILSARTAN]
Activity [17]: 4.2 nM
ED50 (Rattus norvegicus [20]): 0.04 mg/kg

SMILES: CCCSC1=NS(=O)(=O)c2ccc(C(=O)O)cc2N1Cc1ccc(-c2ccccc2-c2nn[nH]n2)cc1
Kb [21]: 0.08 nM
Ki [10]: 8.5 nM

SMILES: CCc1nc2c(C)cc(C)nc2n1Cc1ccc(-c2c(-c3nn[nH]n3)cnc3ccccc23)cc1
IC50 [13]: 0.4 nM

The next lines start with results.

IC50 [3]: 0.055 nM
SMILES: CCCCc1nc2cccc(C(=O)O)c2n1Cc1ccc(-c2ccccc2-c2nnn[nH]2)cc1

Kb [4]: 2.24 nM
IC50 [5]: 12 nM
SMILES: CCCCc1cn(CCCC)c(=O)n1Cc1ccc(-c2ccccc2-c2nnn[nH]2)cc1 [SC-51895]

IC50 [7]: 0.2 nM
SMILES: CCCCc1nc(SC)c(C(=O)O)n1Cc1ccc(-c2ccccc2-c2nnn[nH]2)cc1
ED50 (Rattus norvegicus [8]; read-out: ID50 (the source's name)): 0.05 mg/kg
ED50 (Rattus norvegicus [9]): 0.4 mg/kg

pD2 [14]: 9.97
IC50 [5]: 110 nM
Ratio Ki [15]: 10
SMILES: CCOc1nc2cccc(C(=O)O)c2n1Cc1ccc(-c2ccccc2-c2nnn[nH]2)cc1

IC50 [16]: 50 nM
SMILES: CCCCc1nc(Cl)c2n1C(c1ccc(-c3ccccc3-c3nnn[nH]3)cc1)CC=C2C(=O)O (stereo unspecified)

Kb [6]: 0.0912 nM
SMILES: CCCc1nc2c(n1Cc1ccc(-c3ccccc3-c3nnn[nH]3)cc1)C(=O)CCCC2 [PRATOSARTAN]

Ki [5]: 1 nM
SMILES: CCCCC1=NC(Cl)=C(C(=O)O)C(C)N1Cc1ccc(-c2ccccc2-c2nnn[nH]2)cc1 (stereo unspecified)

Ki [5]: 29 nM
Ki [16]: 480 nM
SMILES: CCCc1nc2ccccc2n1C(F)(F)C(O)c1ccc(-c2ccccc2-c2nnn[nH]2)cc1 (stereo unspecified)
ED30 (Rattus norvegicus [8]): 2 mg/kg

Kb [4]: 2 nM
IC50 [5]: 5.6 nM
SMILES: CCCCc1nc(CCCC)n(Cc2ccc(-c3ccccc3-c3nnn[nH]3)cc2)n1
